Measured values taken from US9708639B2, “Method for quantifying amino acids with pyrophosphate” (TOYAMA PREFECTURE, priority 2012, dated 2017).

Experiments:
Assay in all cases: Qualitative test of AARS substrate specificity (molybdenum blue method)
Assay type in all cases: biochemical, Thermotoga maritima MSB8 strain
Design in all cases: key: +: Activity was detected; −: Activity was not detected
Thermotoga-derived CysRS = target: T1, Thermotoga-derived CysRS (Thermotoga maritima, UniProt Q9WZH8); details: Tyr 1 mM, other amino acids 5 mM; hydroxylamine 1000 mM; CysRS 0.3 mg/ml (8 mU/ml); 30° C.
T1 construct: The amplification products were each inserted into pET-28a to obtain plasmids for expression of respective AARSs; His tag (C); made in house; host or cells: Escherichia coli BL21 (DE3)
T1 sequence (Q9WZH8 1-460): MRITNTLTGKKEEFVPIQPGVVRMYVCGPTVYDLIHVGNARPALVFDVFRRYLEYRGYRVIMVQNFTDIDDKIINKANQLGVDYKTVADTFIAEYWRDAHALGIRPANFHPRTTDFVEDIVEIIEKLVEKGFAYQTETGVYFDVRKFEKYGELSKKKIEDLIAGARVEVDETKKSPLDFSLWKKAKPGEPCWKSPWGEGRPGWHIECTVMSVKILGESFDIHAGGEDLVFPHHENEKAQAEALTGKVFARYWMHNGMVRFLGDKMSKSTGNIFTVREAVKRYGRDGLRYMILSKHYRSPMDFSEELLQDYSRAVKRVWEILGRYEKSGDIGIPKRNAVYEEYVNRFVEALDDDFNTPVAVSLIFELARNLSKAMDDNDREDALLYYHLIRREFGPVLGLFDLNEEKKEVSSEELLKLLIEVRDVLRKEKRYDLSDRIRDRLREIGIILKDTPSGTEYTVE
Method: (§1) A test sample containing an amino acid as the measurement subject and a reaction mixture for quantifying amino acid having the following composition were mixed. The mixture was left standing at 30° C. to allow the AARS reaction to advance. The mixture in a volume of 33 μl, 66 μl of water, and 1 μl of a 300 U/ml yeast pyrophosphatase solution were mixed, and left standing at room temperature for 20 minutes to allow the pyrophosphatase reaction to advance. Then, the reaction mixture was mixed with 100 μl of a color development solution A and 30 μl of a color developing solution B having the following compositions, then the mixture was left standing at room temperature for 5 minutes, and the absorbance was measured at 700 nm or 900 nm with a microplate reader.
(§2) Reaction mixture for quantifying amino acid: 20 mM Tris-HCl (pH 7.0), 5 mM MgCl2, 2 mM ATP, and AARS (concentrations are final concentrations obtained after mixing with test sample)
(§3) Color developing solution A: A solution obtained by mixing water and concentrated sulfuric acid at a ratio of 3:1 and dissolving (NH4)6Mo7O24.4H2O in the mixture at a concentration of 0.066 g/ml
(§4) Color developing solution B: A solution obtained by mixing water and concentrated sulfuric acid at a ratio of 10000:7 and dissolving FeSO4.7H2O in the mixture at a concentration of 145 mg/ml
(§5) Presence or absence of pyrophosphate generation was verified for the Thermotoga-derived CysRS, HisRS, LysRS, ProRS, SerRS, TrpRS, and TyrRS by using the AARS activity measurement method described in 9. and standard solutions of the various amino acids as test samples. AARSs were added to the reaction mixture at final concentrations of 0.3 (8 mU/ml), 0.1, 0.2 (3 mU/ml), 0.2, 0.1 (1 mU/ml), 0.1, 0.2 (20 mU/ml) mg/ml, respectively. The reaction mixtures were prepared so that the final concentration of Tyr was 1 mM, and the final concentrations of the other amino acids were 5 mM. As for the hydroxylamine concentration, it was added at a final concentration of 1000 mM for all the cases. Further, presence or absence of pyrophosphate production was also verified for the Thermus-derived MetRS and TyrRS by using the AARS activity measurement method described in 10. and standard solutions of the various amino acids as test samples. The reaction mixtures were prepared so that the final concentrations of the amino acids were 200 μM. Hydroxylamine was added at a final concentration of 400 mM.
(§6) Detection or no detection of the activity in the reaction mixtures containing a combination of each AARS and amino acid are shown in Table 2. The symbol + indicates detection of the activity, and − indicates no detection of the activity.

Thermotoga-derived SerRS = target: T2, Thermotoga-derived SerRS (Thermotoga maritima, UniProt Q9X199); details: Tyr 1 mM, other amino acids 5 mM; hydroxylamine 1000 mM; SerRS 0.1 mg/ml (1 mU/ml); 30° C.
T2 construct: His tag (C); made in house; host or cells: Escherichia coli BL21 (DE3)
Method: as §1, §2, §3, §4, §5, §6

Thermotoga-derived LysRS = target: T3, Thermotoga-derived LysRS (Thermotoga maritima, UniProt Q9X231); details: Tyr 1 mM, other amino acids 5 mM; hydroxylamine 1000 mM; LysRS 0.2 mg/ml (3 mU/ml); 30° C.
T3 construct: His tag (C); made in house; host or cells: Escherichia coli BL21 (DE3)
T3 sequence (Q9X231 1-502): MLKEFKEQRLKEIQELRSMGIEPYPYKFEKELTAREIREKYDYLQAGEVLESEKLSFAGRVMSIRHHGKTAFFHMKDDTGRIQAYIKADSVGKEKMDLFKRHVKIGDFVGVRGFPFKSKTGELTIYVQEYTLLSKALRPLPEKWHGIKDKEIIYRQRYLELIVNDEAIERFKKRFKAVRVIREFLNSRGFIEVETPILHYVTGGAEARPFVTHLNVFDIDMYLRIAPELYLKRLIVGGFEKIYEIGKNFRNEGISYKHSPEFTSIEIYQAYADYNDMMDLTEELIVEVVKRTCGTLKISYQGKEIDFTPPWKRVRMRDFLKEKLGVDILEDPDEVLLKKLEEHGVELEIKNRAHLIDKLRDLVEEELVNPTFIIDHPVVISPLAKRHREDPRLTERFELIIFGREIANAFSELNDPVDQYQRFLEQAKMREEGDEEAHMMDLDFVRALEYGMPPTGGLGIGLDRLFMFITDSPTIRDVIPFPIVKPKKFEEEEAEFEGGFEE
Method: as §1, §2, §3, §4, §5, §6

Thermotoga-derived TrpRS = target: T4, Thermotoga-derived TrpRS (Thermotoga maritima, UniProt Q9WYW2); details: Tyr 1 mM, other amino acids 5 mM; hydroxylamine 1000 mM; TrpRS 0.1 mg/ml; 30° C.
T4 construct: His tag (C); made in house; host or cells: Escherichia coli BL21 (DE3)
T4 sequence (Q9WYW2 1-328): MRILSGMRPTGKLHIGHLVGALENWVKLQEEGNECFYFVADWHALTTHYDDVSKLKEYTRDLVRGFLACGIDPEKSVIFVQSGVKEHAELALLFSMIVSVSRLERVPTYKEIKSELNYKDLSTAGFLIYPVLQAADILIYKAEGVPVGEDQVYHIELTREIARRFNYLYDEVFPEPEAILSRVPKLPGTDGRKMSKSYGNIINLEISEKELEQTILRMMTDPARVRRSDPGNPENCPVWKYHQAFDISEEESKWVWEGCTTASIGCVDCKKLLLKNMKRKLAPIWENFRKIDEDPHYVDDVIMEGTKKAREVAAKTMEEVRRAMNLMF
Method: as §1, §2, §3, §4, §5, §6

T2 sequence (Q9X199 whole entry): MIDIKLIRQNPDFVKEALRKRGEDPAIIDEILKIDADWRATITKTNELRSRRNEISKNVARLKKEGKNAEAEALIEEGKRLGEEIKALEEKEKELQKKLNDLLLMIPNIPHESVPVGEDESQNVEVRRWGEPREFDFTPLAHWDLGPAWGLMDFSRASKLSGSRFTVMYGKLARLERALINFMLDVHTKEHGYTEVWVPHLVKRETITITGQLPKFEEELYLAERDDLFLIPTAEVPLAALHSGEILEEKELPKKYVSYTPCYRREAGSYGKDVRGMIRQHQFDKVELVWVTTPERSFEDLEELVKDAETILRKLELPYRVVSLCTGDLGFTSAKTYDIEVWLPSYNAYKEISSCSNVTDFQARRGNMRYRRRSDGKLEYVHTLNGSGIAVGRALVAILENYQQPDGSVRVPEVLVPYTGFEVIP

Compound	Detection of the activity (pyrophosphate generation), CysRS (Thermotoga-derived CysRS)	Detection of the activity (pyrophosphate generation), SerRS (Thermotoga-derived SerRS)	Detection of the activity (pyrophosphate generation), LysRS (Thermotoga-derived LysRS)	Detection of the activity (pyrophosphate generation), TrpRS (Thermotoga-derived TrpRS)
N[C@@H](Cc1c[nH]cn1)C(=O)O [His, L-histidine]	−	−	−	−
NC(=O)C[C@H](N)C(=O)O [Asn, L-asparagine]	−	−	−	−
N=C(N)NCCC[C@H](N)C(=O)O [Arg, L-arginine]	−	−	−	−
NC(=O)CC[C@H](N)C(=O)O [Gln, L-glutamine]	−	−	−	−
C[C@H](N)C(=O)O [Ala, L-alanine]	−	−	−	−
C[C@@H](O)[C@H](N)C(=O)O [Thr, L-threonine]	−	−	−	−
NCCCC[C@H](N)C(=O)O [Lys, L-lysine]	−	−	+	−
N[C@@H](Cc1ccccc1)C(=O)O [Phe, L-phenylalanine]	−	−	−	−
CC(C)C[C@H](N)C(=O)O [Leu, L-leucine]	−	−	−	−
N[C@@H](Cc1ccc(O)cc1)C(=O)O [Tyr, L-tyrosine]	−	−	−	−
CSCC[C@H](N)C(=O)O [Met, L-methionine]	−	−	−	−
N[C@@H](CO)C(=O)O [Ser, L-serine]	−	+	−	−
N[C@@H](CCC(=O)O)C(=O)O [Glu, L-glutamic acid]	−	−	−	−
O=C(O)[C@@H]1CCCN1 [Pro, L-proline]	−	−	−	−
CC[C@H](C)[C@H](N)C(=O)O [Ile, L-isoleucine]	−	−	−	−
N[C@@H](Cc1c[nH]c2ccccc12)C(=O)O [Trp, L-tryptophan]	−	−	−	+
NCC(=O)O [Gly, glycine]	−	−	−	−
CC(C)[C@H](N)C(=O)O [Val, L-valine]	−	−	−	−
